# ± gives the expanded uncertainty stated by the source.
# Experiment: xn = mol fraction of the nth substance listed
# Conditions: 101 kPa, Liquid; for viscosity: Falling or rolling sphere viscometry; for mass density: Vibrating tube method
smiles,measurement,setting,value
CCCC(=O)OCC [ethyl butanoate] + CC(C)CO,viscosity,"308.15 K, x1 = 0.1",1.693 ± 0.036 mPa·s
same,viscosity,"308.15 K, x1 = 0.2001",1.262 ± 0.027 mPa·s
same,viscosity,"308.15 K, x1 = 0.3001",1.018 ± 0.022 mPa·s
same,viscosity,"308.15 K, x1 = 0.3999",0.8702 ± 0.019 mPa·s
same,viscosity,"308.15 K, x1 = 0.5",0.7709 ± 0.017 mPa·s
same,viscosity,"308.15 K, x1 = 0.5999",0.6967 ± 0.015 mPa·s
same,viscosity,"308.15 K, x1 = 0.7001",0.6458 ± 0.014 mPa·s
same,viscosity,"308.15 K, x1 = 0.8001",0.6101 ± 0.013 mPa·s
same,viscosity,"308.15 K, x1 = 0.8997",0.5862 ± 0.013 mPa·s
same,viscosity,"308.15 K, x1 = 1",0.5736 ± 0.013 mPa·s
same,mass density,"308.15 K, x1 = 0.1",799.49 ± 0.2 kg/m3
same,mass density,"308.15 K, x1 = 0.2001",808.15 ± 0.2 kg/m3
same,mass density,"308.15 K, x1 = 0.3001",816.12 ± 0.2 kg/m3
same,mass density,"308.15 K, x1 = 0.3999",823.84 ± 0.21 kg/m3
same,mass density,"308.15 K, x1 = 0.5",831.14 ± 0.21 kg/m3
same,mass density,"308.15 K, x1 = 0.5999",837.99 ± 0.22 kg/m3
same,mass density,"308.15 K, x1 = 0.7001",844.55 ± 0.23 kg/m3
same,mass density,"308.15 K, x1 = 0.8001",850.88 ± 0.24 kg/m3
same,mass density,"308.15 K, x1 = 0.8997",857.04 ± 0.25 kg/m3
same,mass density,"308.15 K, x1 = 1",863.02 ± 0.27 kg/m3
same,viscosity,"313.15 K, x1 = 0.1",1.501 ± 0.032 mPa·s
same,viscosity,"313.15 K, x1 = 0.2001",1.137 ± 0.024 mPa·s
same,viscosity,"313.15 K, x1 = 0.3001",0.9295 ± 0.02 mPa·s
same,viscosity,"313.15 K, x1 = 0.3999",0.8021 ± 0.017 mPa·s
same,viscosity,"313.15 K, x1 = 0.5",0.7166 ± 0.015 mPa·s
same,viscosity,"313.15 K, x1 = 0.5999",0.6507 ± 0.014 mPa·s
same,viscosity,"313.15 K, x1 = 0.7001",0.6059 ± 0.013 mPa·s
same,viscosity,"313.15 K, x1 = 0.8001",0.5742 ± 0.013 mPa·s
same,viscosity,"313.15 K, x1 = 0.8997",0.5531 ± 0.012 mPa·s
same,viscosity,"313.15 K, x1 = 1",0.5425 ± 0.012 mPa·s
same,mass density,"313.15 K, x1 = 0.1",795.27 ± 0.2 kg/m3
same,mass density,"313.15 K, x1 = 0.2001",803.72 ± 0.2 kg/m3
same,mass density,"313.15 K, x1 = 0.3001",811.51 ± 0.21 kg/m3
same,mass density,"313.15 K, x1 = 0.3999",819.09 ± 0.21 kg/m3
same,mass density,"313.15 K, x1 = 0.5",826.25 ± 0.22 kg/m3
same,mass density,"313.15 K, x1 = 0.5999",832.98 ± 0.22 kg/m3
same,mass density,"313.15 K, x1 = 0.7001",839.44 ± 0.23 kg/m3
same,mass density,"313.15 K, x1 = 0.8001",845.69 ± 0.24 kg/m3
same,mass density,"313.15 K, x1 = 0.8997",851.78 ± 0.25 kg/m3
same,mass density,"313.15 K, x1 = 1",857.7 ± 0.27 kg/m3
same,viscosity,"318.15 K, x1 = 0.1",1.337 ± 0.029 mPa·s
same,viscosity,"318.15 K, x1 = 0.2001",1.029 ± 0.022 mPa·s
same,viscosity,"318.15 K, x1 = 0.3001",0.8513 ± 0.018 mPa·s
same,viscosity,"318.15 K, x1 = 0.3999",0.7413 ± 0.016 mPa·s
same,viscosity,"318.15 K, x1 = 0.5",0.6676 ± 0.014 mPa·s
same,viscosity,"318.15 K, x1 = 0.5999",0.6086 ± 0.013 mPa·s
same,viscosity,"318.15 K, x1 = 0.7001",0.569 ± 0.012 mPa·s
same,viscosity,"318.15 K, x1 = 0.8001",0.5409 ± 0.012 mPa·s
same,viscosity,"318.15 K, x1 = 0.8997",0.5224 ± 0.011 mPa·s
same,viscosity,"318.15 K, x1 = 1",0.5132 ± 0.011 mPa·s
same,mass density,"318.15 K, x1 = 0.1",791 ± 0.2 kg/m3
same,mass density,"318.15 K, x1 = 0.2001",799.25 ± 0.2 kg/m3
same,mass density,"318.15 K, x1 = 0.3001",806.87 ± 0.21 kg/m3
same,mass density,"318.15 K, x1 = 0.3999",814.29 ± 0.21 kg/m3
same,mass density,"318.15 K, x1 = 0.5",821.33 ± 0.22 kg/m3
same,mass density,"318.15 K, x1 = 0.5999",827.95 ± 0.22 kg/m3
same,mass density,"318.15 K, x1 = 0.7001",834.31 ± 0.23 kg/m3
same,mass density,"318.15 K, x1 = 0.8001",840.47 ± 0.24 kg/m3
same,mass density,"318.15 K, x1 = 0.8997",846.5 ± 0.25 kg/m3
same,mass density,"318.15 K, x1 = 1",852.36 ± 0.27 kg/m3
same,viscosity,"323.15 K, x1 = 0.1",1.219 ± 0.026 mPa·s
same,viscosity,"323.15 K, x1 = 0.2001",0.9403 ± 0.02 mPa·s
same,viscosity,"323.15 K, x1 = 0.3001",0.785 ± 0.017 mPa·s
same,viscosity,"323.15 K, x1 = 0.3999",0.6914 ± 0.015 mPa·s
same,viscosity,"323.15 K, x1 = 0.5",0.6257 ± 0.013 mPa·s
same,viscosity,"323.15 K, x1 = 0.5999",0.5716 ± 0.012 mPa·s
same,viscosity,"323.15 K, x1 = 0.7001",0.5382 ± 0.012 mPa·s
same,viscosity,"323.15 K, x1 = 0.8001",0.5126 ± 0.011 mPa·s
same,viscosity,"323.15 K, x1 = 0.8997",0.4958 ± 0.011 mPa·s
same,viscosity,"323.15 K, x1 = 1",0.487 ± 0.011 mPa·s
same,mass density,"323.15 K, x1 = 0.1",786.67 ± 0.2 kg/m3
same,mass density,"323.15 K, x1 = 0.2001",794.73 ± 0.2 kg/m3
same,mass density,"323.15 K, x1 = 0.3001",802.18 ± 0.21 kg/m3
same,mass density,"323.15 K, x1 = 0.3999",809.46 ± 0.21 kg/m3
same,mass density,"323.15 K, x1 = 0.5",816.36 ± 0.22 kg/m3
same,mass density,"323.15 K, x1 = 0.5999",822.87 ± 0.22 kg/m3
same,mass density,"323.15 K, x1 = 0.7001",829.14 ± 0.23 kg/m3
same,mass density,"323.15 K, x1 = 0.8001",835.23 ± 0.24 kg/m3
same,mass density,"323.15 K, x1 = 0.8997",841.18 ± 0.25 kg/m3
same,mass density,"323.15 K, x1 = 1",847 ± 0.27 kg/m3

# — the NIST ThermoML archive (doi:10.1021/je5005752)
